Source: PubChem BioAssay (NCI)
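Method: 48-hour compound exposure of cells in 96-well plates, five concentrations, linear interpolation of endpoints. TGI denotes the concentration required for complete inhibition of growth.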

Assays:
Test in all cases: NCI tumour cell line growth inhibition, 48 h
MALME-3M melanoma = tested on: MALME-3M melanoma
XF 498 CNS = tested on: XF 498 CNS
A549 NSCLC = tested on: A549 NSCLC
HL-60(TB) leukemia = tested on: HL-60(TB) leukemia
HCC-2998 colon = tested on: HCC-2998 colon
RPMI-8226 leukemia = tested on: RPMI-8226 leukemia
DLD-1 colon = tested on: DLD-1 colon
M19-MEL melanoma = tested on: M19-MEL melanoma
DMS 273 small cell lung = tested on: DMS 273 small cell lung
HT29 colon = tested on: HT29 colon
RXF-631 renal = tested on: RXF-631 renal
SN12C renal = tested on: SN12C renal
NCI-H23 lung = tested on: NCI-H23 lung
OVCAR-8 ovarian = tested on: OVCAR-8 ovarian
ACHN renal = tested on: ACHN renal
OVCAR-5 ovarian = tested on: OVCAR-5 ovarian
SNB-75 CNS = tested on: SNB-75 CNS
KM20L2 colon = tested on: KM20L2 colon
CCRF-CEM leukemia = tested on: CCRF-CEM leukemia
UO-31 renal = tested on: UO-31 renal
OVCAR-4 ovarian = tested on: OVCAR-4 ovarian
HOP-92 NSCLC = tested on: HOP-92 NSCLC
TK-10 renal = tested on: TK-10 renal
SF-268 CNS = tested on: SF-268 CNS
SR leukemia = tested on: SR leukemia
SF-295 CNS = tested on: SF-295 CNS
U251 CNS = tested on: U251 CNS
SK-MEL-2 melanoma = tested on: SK-MEL-2 melanoma
UACC-257 melanoma = tested on: UACC-257 melanoma
KM12 colon = tested on: KM12 colon
RXF 393 renal = tested on: RXF 393 renal
M14 melanoma = tested on: M14 melanoma
COLO 205 colon = tested on: COLO 205 colon
HCT-116 colon = tested on: HCT-116 colon
DMS 114 small cell lung = tested on: DMS 114 small cell lung
EKVX NSCLC = tested on: EKVX NSCLC
NCI-H226 lung = tested on: NCI-H226 lung
SNB-78 CNS = tested on: SNB-78 CNS
SK-MEL-5 melanoma = tested on: SK-MEL-5 melanoma
NCI-H522 lung = tested on: NCI-H522 lung
CAKI-1 renal = tested on: CAKI-1 renal
SK-MEL-28 melanoma = tested on: SK-MEL-28 melanoma
SW-620 colon = tested on: SW-620 colon
SF-539 CNS = tested on: SF-539 CNS
NCI-H460 lung = tested on: NCI-H460 lung
IGROV1 ovarian = tested on: IGROV1 ovarian
OVCAR-3 ovarian = tested on: OVCAR-3 ovarian
A498 renal = tested on: A498 renal
MOLT-4 leukemia = tested on: MOLT-4 leukemia
786-0 renal = tested on: 786-0 renal
SK-OV-3 ovarian = tested on: SK-OV-3 ovarian
HOP-62 NSCLC = tested on: HOP-62 NSCLC
LOX IMVI melanoma = tested on: LOX IMVI melanoma
HCT-15 colon = tested on: HCT-15 colon
HOP-18 NSCLC = tested on: HOP-18 NSCLC
UACC-62 melanoma = tested on: UACC-62 melanoma
SNB-19 CNS = tested on: SNB-19 CNS
LXFL 529 NSCLC = tested on: LXFL 529 NSCLC
K-562 leukemia = tested on: K-562 leukemia
MCF7 breast = tested on: MCF7 breast
P388/ADR leukemia = tested on: P388/ADR leukemia
SN12K1 renal = tested on: SN12K1 renal
NCI/ADR-RES ovarian = tested on: NCI/ADR-RES ovarian
P388 leukemia = tested on: P388 leukemia

COc1ccc(C2=NOP(c3ccccc3)(c3ccccc3)(c3ccccc3)C2)cc1
TGI (MALME-3M melanoma): 50.9 µM | TGI (XF 498 CNS): 49.7 µM | TGI (A549 NSCLC): > 76.1 µM | TGI (HL-60(TB) leukemia): 14 µM | TGI (HCC-2998 colon): > 76.5 µM | TGI (RPMI-8226 leukemia): 33.5 µM | TGI (DLD-1 colon): > 61.7 µM | TGI (M19-MEL melanoma): 57.7 µM | TGI (DMS 273 small cell lung): > 47.6 µM | TGI (HT29 colon): > 48.5 µM | TGI (RXF-631 renal): > 100 µM | TGI (SN12C renal): > 100 µM | TGI (NCI-H23 lung): > 72.5 µM | TGI (OVCAR-8 ovarian): > 92.7 µM | TGI (ACHN renal): > 100 µM | TGI (OVCAR-5 ovarian): > 75.9 µM | TGI (SNB-75 CNS): > 89.4 µM | TGI (KM20L2 colon): > 76.2 µM | TGI (CCRF-CEM leukemia): 39.6 µM | TGI (UO-31 renal): > 100 µM | TGI (OVCAR-4 ovarian): > 100 µM | TGI (HOP-92 NSCLC): 53.2 µM | TGI (TK-10 renal): > 100 µM | TGI (SF-268 CNS): > 100 µM | TGI (SR leukemia): 34.9 µM | TGI (SF-295 CNS): 61.2 µM | TGI (U251 CNS): > 93.1 µM | TGI (SK-MEL-2 melanoma): > 60 µM | TGI (UACC-257 melanoma): 99.2 µM | TGI (KM12 colon): > 100 µM | TGI (RXF 393 renal): 97.4 µM | TGI (M14 melanoma): 41.9 µM | TGI (COLO 205 colon): 23.5 µM | TGI (HCT-116 colon): 21.4 µM | TGI (DMS 114 small cell lung): 26.2 µM | TGI (EKVX NSCLC): > 100 µM | TGI (NCI-H226 lung): 98.4 µM | TGI (SNB-78 CNS): > 100 µM | TGI (SK-MEL-5 melanoma): 28.8 µM | TGI (NCI-H522 lung): 25.1 µM | TGI (CAKI-1 renal): > 64 µM | TGI (SK-MEL-28 melanoma): > 100 µM | TGI (SW-620 colon): > 56.2 µM | TGI (SF-539 CNS): > 100 µM | TGI (NCI-H460 lung): > 45.1 µM | TGI (IGROV1 ovarian): > 100 µM | TGI (OVCAR-3 ovarian): > 85.5 µM | TGI (A498 renal): 89.7 µM | TGI (MOLT-4 leukemia): 41.2 µM | TGI (786-0 renal): > 53.4 µM | TGI (SK-OV-3 ovarian): > 100 µM | TGI (HOP-62 NSCLC): > 100 µM | TGI (LOX IMVI melanoma): 27.1 µM | TGI (HCT-15 colon): > 53 µM | TGI (HOP-18 NSCLC): > 100 µM | TGI (UACC-62 melanoma): 53.2 µM | TGI (SNB-19 CNS): > 100 µM | TGI (LXFL 529 NSCLC): > 56.7 µM | TGI (K-562 leukemia): 31.4 µM

CN(CCO)/N=N/c1[nH]ncc1C(N)=O
TGI (MALME-3M melanoma): > 100 µM | TGI (XF 498 CNS): > 100 µM | TGI (A549 NSCLC): > 100 µM | TGI (HL-60(TB) leukemia): > 100 µM | TGI (HCC-2998 colon): > 100 µM | TGI (RPMI-8226 leukemia): > 100 µM | TGI (DLD-1 colon): > 100 µM | TGI (M19-MEL melanoma): > 100 µM | TGI (DMS 273 small cell lung): > 100 µM | TGI (HT29 colon): > 100 µM | TGI (SN12C renal): > 100 µM | TGI (NCI-H23 lung): > 100 µM | TGI (OVCAR-8 ovarian): > 100 µM | TGI (MCF7 breast): > 100 µM | TGI (OVCAR-5 ovarian): > 100 µM | TGI (SNB-75 CNS): > 100 µM | TGI (KM20L2 colon): > 100 µM | TGI (CCRF-CEM leukemia): > 100 µM | TGI (UO-31 renal): > 100 µM | TGI (OVCAR-4 ovarian): > 100 µM | TGI (P388/ADR leukemia): > 100 µM | TGI (SN12K1 renal): > 100 µM | TGI (HOP-92 NSCLC): > 100 µM | TGI (SF-268 CNS): > 100 µM | TGI (SF-295 CNS): > 100 µM | TGI (U251 CNS): > 100 µM | TGI (SK-MEL-2 melanoma): > 100 µM | TGI (UACC-257 melanoma): > 100 µM | TGI (KM12 colon): > 100 µM | TGI (RXF 393 renal): > 100 µM | TGI (NCI/ADR-RES ovarian): > 100 µM | TGI (P388 leukemia): > 100 µM | TGI (COLO 205 colon): > 100 µM | TGI (HCT-116 colon): > 100 µM | TGI (DMS 114 small cell lung): > 100 µM | TGI (EKVX NSCLC): > 100 µM | TGI (NCI-H226 lung): > 100 µM | TGI (SNB-78 CNS): > 100 µM | TGI (SK-MEL-5 melanoma): > 100 µM | TGI (NCI-H522 lung): > 100 µM | TGI (CAKI-1 renal): > 100 µM | TGI (SK-MEL-28 melanoma): > 100 µM | TGI (SW-620 colon): > 100 µM | TGI (SF-539 CNS): > 100 µM | TGI (NCI-H460 lung): > 100 µM | TGI (IGROV1 ovarian): > 100 µM | TGI (OVCAR-3 ovarian): > 100 µM | TGI (A498 renal): > 100 µM | TGI (MOLT-4 leukemia): > 100 µM | TGI (SK-OV-3 ovarian): > 100 µM | TGI (LOX IMVI melanoma): > 100 µM | TGI (HCT-15 colon): > 100 µM | TGI (HOP-18 NSCLC): > 100 µM | TGI (UACC-62 melanoma): > 100 µM | TGI (SNB-19 CNS): > 100 µM | TGI (K-562 leukemia): > 100 µM
